The text below walks through data of patent publication US20070298994A1, “Use of 3-Mercapto-3-Methyl-Hexan-1-Ol for Use as Malodour Standard” (SYMRISE GMBH & CO. KG, priority 2004, published 2007).

Read-outs that look alike come from different tables or passages of the source.

The nature of this assay: Raw material test against sweat odour (masking of malodour standard, assessor panel). The note with it: for Increase in intensity / Malodour reduction value / Malodour-reduction value: 15 h, scale 1 to 9, standard = 6.
[1] abbreviates: Table 1, 1 μl fragrance + 5 μl 3-mercapto-3-methyl-hexan-1-ol (0.1% in DPG) in 7 l air, 15 h at approx. 20° C., scale 1 to 9, malodour standard mixture = 6, mean of at least 8 assessors.
The mark [2] stands for this setting: Table 2 (raw materials without adequate malodour-reducing action), 1 μl fragrance + 5 μl 3-mercapto-3-methyl-hexan-1-ol (0.1% in DPG) in 7 l air.
Where [3] appears, read: Table 3 (adequate malodour-reducing action but significant increase in intensity), 1 μl fragrance + 5 μl 3-mercapto-3-methyl-hexan-1-ol (0.1% in DPG) in 7 l air.

Regarding `CC(C)[C@H]1CC[C@H](O)CC1` [TRANS-4-ISOPROPYL CYCLOHEXANOL], under setting [1], the “Increase In intensity” value turned out to be 1.0 and the Odour reduction value stood at 4.1.
Taken in the same sequence, the figures for `c1ccc2c(c1)CC1COCOC21` (centres unmarked) [1,4A,9,9A-TETRAHYDRO-2,4-DIOXA-FLUORENE] were 1.0 and 4.3.
Take `OCCCc1ccccc1` [PHENYL PROPYL ALCOHOL, reference compound]: under setting [2], the Increase in intensity is 1.0 and the Malodour reduction value worked out at 0.0.
For `COC(=O)c1ccccc1N=CC(C)Cc1ccc(C(C)(C)C)cc1` (centres unmarked) [2-[[3-[4-1 1-DIMETHYLETHYL)PHENYL)-2-METHYLPROPLIDEN]AMINO]-BENZOIC ACID METHYL ESTER], under setting [1], the “Increase In intensity” value was −0.4 and the Odour reduction value is 3.3.
With `O=C1CCCCCCCCCCCCCCO1` [1.15-PENTADECANOLIDE], under setting [1], the “Increase In intensity” value is listed as 1.1 and the Odour reduction value was 3.6.
Turning to `CCOC(C=C(C)CCC=C(C)C)OCC`, under setting [1], the “Increase In intensity” value is recorded as −0.7 and the Odour reduction value came to 4.3.
The matching figures for `CC1=CCC=C(C)C(O)CCC=C(C)CC1` (centres unmarked): 1.5 and 4.5.
For `CCc1ccc(CC(C)(C)C=O)cc1`, under setting [1], the “Increase In intensity” value was −1.9 and the Odour reduction value is given as 3.7.
Taken in the same sequence, the figures for `CC(=O)c1cc2ccccc2o1` [2-ACETYLBENZOFURAN] were 1.2 and 3.3.
Take `CC(=O)c1cc2c(cc1C)C(C)(C)C(C)CC2(C)C` (centres unmarked) [6-ACETYL-1,1,2,4,4,7-[…]]: under setting [1], the “Increase In intensity” value came to 0.0 and the Odour reduction value was 3.1.
Consider `OCc1ccccc1` [BENZYL ALCOHOL, reference compound], for which, under setting [2], the Increase in intensity worked out at 2.0 and the Malodour reduction value is given as −2.0.
`CCCCCCOC(=O)c1ccccc1O` [SALICYLIC ACID HEXYL ESTER]: under setting [1], the “Increase In intensity” value is 1.7 and the Odour reduction value came out at 3.7.
With `CCCCCCCCC=O` [NONANAL, reference compound], under setting [3], the Increase in intensity was 2.1 and the Malodour-reduction value was 3.0.
Consider `CC/C=C/CCOC(C)=O` [ACETIC ACID-3(E)-HEXENYL ESTER], for which, under setting [1], the “Increase In intensity” value came out at 1.3 and the Odour reduction value turned out to be 3.1.
`CC1=CC(C)C(C(=O)C(C)(C)C)CC1` (centres unmarked): under setting [1], the “Increase In intensity” value is on record as 1.4 and the Odour reduction value stood at 3.5.
The matching figures for `COC1(OC)CCCCCCCCCCC1` [CYCLODODECANONE DIMETHYL KETAL]: 1.5 and 4.0.
The matching figures for `CCC/C=C/C=O` [(E)-2-HEXENAL]: −0.2 and 3.1.
`C/C=C/C(=O)OC(C)CC(C)C` (centres unmarked) [CROTONIC ACID-4-METHYL-2-[…]]: under setting [1], the “Increase In intensity” value is −0.5 and the Odour reduction value stood at 3.5.
With `C/C=C/C(=O)OC(C)C1CCCCC1` (centres unmarked) [CROTONIC ACID-1-CYCLOHEXYL ETHYL ESTER], the “Increase In intensity” value is 0.8 and the Odour reduction value is reported as 3.7.
Consider `CCCC(C)C(=O)OCC` (centres unmarked) [2-METHYL-PENTANOIC ACID ETHYL ESTER], for which, under setting [1], the “Increase In intensity” value amounted to 0.2 and the Odour reduction value is on record as 4.4.
The matching figures for `CCCCCCC1(C)CCC(=O)O1` (centres unmarked) [4-METHYL-GAMMA-DECALACTONE]: 0.9 and 5.6.
The matching figures for `CCOC(=O)OC1C(C)CCC(C)C1C` (centres unmarked) [CARBONIC ACID-ETHYL-2.3.6-TRIMETHYL CYCLOHEXYL ESTER]: 1.0 and 4.6.
In the case of `O=C1CCCCCCCCC/C=C/CCCO1`, under setting [1], the “Increase In intensity” value is on record as 0.0 and the Odour reduction value turned out to be 4.0.
For the compound `CC=Cc1ccc(OC)cc1` [1-METHOXY-4-PROPENYL BENZENE, reference compound], under setting [2], the Increase in intensity was 2.0 and the Malodour reduction value came out at 2.0.
For the compound `COc1cc(C=O)ccc1O` [VANILLIN, reference compound], under setting [2], the Increase in intensity was determined as 1.0 and the Malodour reduction value is 0.0.
For `C=CCc1ccc(O)c(OC)c1` [EUGENOL], under setting [1], the “Increase In intensity” value is 0.7 and the Odour reduction value stood at 6.0.
Taken in the same sequence, the figures for `CC/C=C\CCOCCC#N` [(Z)-3-(3-HEXENYLOXY)-PROPANENITRILE] were 1.5 and 5.0.
Take `CCCCCC(C=O)=Cc1ccccc1` [reference compound]: under setting [2], the Increase in intensity was found to be 1.0 and the Malodour reduction value was found to be 0.0.
Take `CC1OC(C)C2Cc3ccccc3C2O1` (centres unmarked): under setting [1], the “Increase In intensity” value came out at 1.1 and the Odour reduction value is given as 4.1.
Turning to `CCCCCCCCCC(C)C=O` (centres unmarked) [2-METHYLUNDECANAL], under setting [1], the “Increase In intensity” value is 0.7 and the Odour reduction value is listed as 3.2.
As to `COCc1ccc(O)c(OC)c1` [2-METHOXY-4-METHOXYMETHYL-PHENOL], under setting [1], the “Increase In intensity” value is −0.1 and the Odour reduction value turned out to be 4.1.
With `CC(=O)OCCC(C)C` [ACETIC ACID-3-METHYLBUTYL ESTER], under setting [1], the “Increase In intensity” value is listed as 1.3 and the Odour reduction value was 5.8.
The matching figures for `O=C1CCCCCC/C=C/CCCCCCC1` [(E)-8-CYCLOHEXADECEN-1-ONE]: 0.2 and 4.0.
Consider `CC(=O)O[C@@H]1C[C@H]2CC[C@]1(C)C2(C)C` (racemic) [ACETIC ACID ISOBORNYL ESTER, reference compound], for which, under setting [2], the Increase in intensity is given as −0.5 and the Malodour reduction value was determined as 2.3.
Regarding `C=CC(C)(C#N)Cc1ccccc1` (stereo not drawn) [ALPHA-ETHENYL-ALPHA-METHYL-BENZENE PROPANE NITRILE], under setting [1], the “Increase In intensity” value is 1.0 and the Odour reduction value is reported as 4.2.
With `CC(=O)OC1CC(C)CCC1C(C)C` (centres unmarked) [MENTHYL ACETATE, reference compound], under setting [3], the Increase in intensity was 2.9 and the Malodour-reduction value stood at 4.4.
Regarding `CC(=O)OCc1ccccc1` [BENZYL ACETATE, reference compound], under setting [2], the Increase in intensity was 0.4 and the Malodour reduction value turned out to be 2.5.
On to `COCc1ccccc1O` [2-METHOXYMETHYLPHENOL], for which, under setting [1], the “Increase In intensity” value is recorded as −2.1 and the Odour reduction value turned out to be 3.8.
Taken in the same sequence, the figures for `C/C=C(\C)C(=O)OC/C=C(\C)CCC=C(C)C` [TIGLIC ACID GERANYL ESTER] were 0.8 and 4.5.
On to `CC(C)=CCCC(C)CCO` (centres unmarked) [CITRONELLOL, reference compound], for which, under setting [2], the Increase in intensity was −0.2 and the Malodour reduction value is reported as 2.2.
On to `CC(=CCC1CCC=C(C)C1(C)C)CO` (centres unmarked), for which, under setting [1], the “Increase In intensity” value came out at 0.0 and the Odour reduction value worked out at 3.0.
Take `CCC(C)CCCC(C)(C)O` (centres unmarked) [TETRAHYDROMYRCENOL, reference compound]: under setting [3], the Increase in intensity worked out at 2.2 and the Malodour-reduction value stood at 4.0.
`CCCCCOC(=O)c1ccccc1O` [AMYL SALICYLATE, reference compound]: under setting [3], the Increase in intensity came to 2.4 and the Malodour-reduction value worked out at 3.6.
